Results taken from US20220257552A1, “METHODS OF PRESCREENING AND TREATING BREAST CANCERS WITH SELECTIVE ANDROGEN RECEPTOR MODULATORS” (priority 2021, published 2022).

Columns and labels:
[1] = tested on: MDA-MB-231 breast cancer cells stably transfected with AR; test: Proliferation of MDA-MB-231 cells stably transfected with AR (Coulter counter); assay type: cell-based; conditions: 6 days, cell count
Protocol: MDA-MB-231 cells stably transfected with AR using lentivirus were treated with the indicated ligands for 6 days and the number of cells counted using Coulter counter.

MDA-MB-231-AR cells = test: Morphology of MDA-MB-231-AR cells; assay type: cell-based; conditions: 3 days
Protocol: MDA-MB-231 cells were stably transfected with AR using lentivirus. […] Live cells were visualized using a light-microscope and photographed. The cells were imaged at the same magnification and under the same microscopic conditions.
MDA-MB-231 cells were stably transfected with AR using lentivirus and were treated with vehicle or AR agonists at the indicated concentrations. At the end of 3 days of incubation, the cells were imaged under a microscope (40×).

PR = target: T1, PR (Rattus norvegicus, UniProt Q63449); test: PR transactivation in HEK-293 cells; assay type: cell-based
T1 construct: expressed in transfected cells
T1 sequence (Q63449 1-923): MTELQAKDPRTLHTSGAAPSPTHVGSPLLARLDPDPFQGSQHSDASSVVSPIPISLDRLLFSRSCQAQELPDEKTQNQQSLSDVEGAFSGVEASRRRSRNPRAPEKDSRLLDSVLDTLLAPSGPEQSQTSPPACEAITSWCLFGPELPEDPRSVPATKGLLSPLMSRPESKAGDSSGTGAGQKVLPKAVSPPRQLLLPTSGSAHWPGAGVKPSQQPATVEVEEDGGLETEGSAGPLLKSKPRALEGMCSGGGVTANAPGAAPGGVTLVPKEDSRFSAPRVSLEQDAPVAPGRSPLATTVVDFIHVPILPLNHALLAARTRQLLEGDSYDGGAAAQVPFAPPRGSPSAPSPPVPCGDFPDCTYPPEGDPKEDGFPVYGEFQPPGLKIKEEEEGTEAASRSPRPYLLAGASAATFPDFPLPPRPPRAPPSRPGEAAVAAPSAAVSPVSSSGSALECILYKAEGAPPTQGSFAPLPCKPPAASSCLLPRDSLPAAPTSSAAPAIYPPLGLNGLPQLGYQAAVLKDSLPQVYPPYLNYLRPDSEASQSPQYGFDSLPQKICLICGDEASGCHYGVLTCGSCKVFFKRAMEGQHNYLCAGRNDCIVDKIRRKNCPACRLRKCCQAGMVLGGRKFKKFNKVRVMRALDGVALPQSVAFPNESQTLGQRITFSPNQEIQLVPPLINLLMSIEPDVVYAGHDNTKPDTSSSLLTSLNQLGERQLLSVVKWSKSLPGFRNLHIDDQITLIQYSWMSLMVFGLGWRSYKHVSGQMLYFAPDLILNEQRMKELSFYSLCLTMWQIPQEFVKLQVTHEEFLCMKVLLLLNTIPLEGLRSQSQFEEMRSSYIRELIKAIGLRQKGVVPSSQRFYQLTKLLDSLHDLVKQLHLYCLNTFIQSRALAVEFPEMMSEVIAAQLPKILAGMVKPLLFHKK
Protocol: Rat GR, MR, PR, ER-α and ER-β were individually cloned into a pCR3.1 vector backbone. Sequencing was performed to verify the absence of any mutations. HEK-293 cells were plated at 90,000 cells per well of a 24 well plate in Dulbecco's Minimal Essential Media supplemented with 5% charcoal-stripped FBS. […] Luciferase assays were performed 48 h after transfection. Transcriptional activation values are represented as firefly luciferase normalized to renilla luciferase.

[2] = tested on: MDA-MB-231-AR triple negative breast cancer cells; test: MDA-MB-231-AR xenograft in nude mice; assay type: in vivo; conditions: for body weight / tumor weights: all doses
Protocol: MDA-MB-231-AR triple negative breast cancer cells (2 million cells/mouse; MDA-MB-231 cells stably transfected with AR using lentivirus) were mixed with matrigel (1:1) and injected subcutaneously into the flanks of intact female nude mice (n=5/group). When the tumors reached 150-200 mm^3, the animals were separated into two groups, one receiving vehicle and the other receiving 30 mg/kg Formula VIII orally. Tumor volume was measured thrice weekly and % tumor growth inhibition (TGI) was calculated. At the end of 35 days of treatment, the animals were sacrificed, tumors excised, weighed, and collected for various analyses. Blood was collected and serum separated for drug concentration measurement.

AR = target: T2, AR (Homo sapiens, UniProt P10275); test: AR transactivation (GRE-LUC) in HEK-293 or MDA-MB-231 cells; assay type: cell-based; set-up: expressed in transfected cells; conditions: HEK-293 and MDA-MB-231 cells
T2 sequence (P10275 1-920): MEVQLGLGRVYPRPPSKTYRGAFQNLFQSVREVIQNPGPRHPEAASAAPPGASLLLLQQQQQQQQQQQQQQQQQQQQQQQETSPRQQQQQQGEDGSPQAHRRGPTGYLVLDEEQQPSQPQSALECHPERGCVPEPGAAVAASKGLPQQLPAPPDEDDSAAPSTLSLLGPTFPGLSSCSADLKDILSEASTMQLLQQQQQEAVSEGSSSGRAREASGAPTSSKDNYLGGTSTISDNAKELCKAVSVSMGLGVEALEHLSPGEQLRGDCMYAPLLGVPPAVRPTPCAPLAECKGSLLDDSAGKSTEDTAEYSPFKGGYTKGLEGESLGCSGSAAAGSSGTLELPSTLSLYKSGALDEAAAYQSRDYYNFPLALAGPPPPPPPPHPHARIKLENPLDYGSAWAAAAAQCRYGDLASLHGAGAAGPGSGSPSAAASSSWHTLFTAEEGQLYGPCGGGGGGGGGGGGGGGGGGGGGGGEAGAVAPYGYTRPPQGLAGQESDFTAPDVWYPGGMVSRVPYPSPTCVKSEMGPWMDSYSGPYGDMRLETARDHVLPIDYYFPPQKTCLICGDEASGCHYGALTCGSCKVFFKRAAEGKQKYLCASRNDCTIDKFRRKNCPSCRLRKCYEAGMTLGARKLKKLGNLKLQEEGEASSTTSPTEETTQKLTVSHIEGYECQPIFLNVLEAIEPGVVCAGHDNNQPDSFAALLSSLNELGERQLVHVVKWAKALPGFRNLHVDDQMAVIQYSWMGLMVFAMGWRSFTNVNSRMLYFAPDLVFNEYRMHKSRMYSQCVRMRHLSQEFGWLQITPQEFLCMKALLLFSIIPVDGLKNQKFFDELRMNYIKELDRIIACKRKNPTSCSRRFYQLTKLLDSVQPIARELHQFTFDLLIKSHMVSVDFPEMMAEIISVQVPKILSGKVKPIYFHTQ
Protocol: Though AR transactivation assay was performed in HEK-293 cells, the ability of ligands to function as agonists or antagonists depends on cellular microenvironment. […] The cells were treated 24 h after transfection and luciferase assay performed 48 h after transfection.

| SMILES | proliferation [1] | cell morphology (MDA-MB-231-AR cells) | IC50 (PR) [nM] | PR antagonist potency relative to Formula IX (more potent) (PR) [times] | PR antagonist potency relative to R-enantiomer of Formula IX (more potent) (PR) [times] | PR antagonist potency relative to RU486 (weaker) (PR) | transactivation of PR, increase (PR; 1 μM) [fold] | transactivation of PR, increase (PR; 10 μM) [fold] | weaker than the endogenous agonist for PR (PR; vs progesterone) | uterus weight ([2]; 30 mg/kg orally) | toxicity / body weight ([2]; 30 mg/kg orally, 35 days) | body weight [2] | tumor weights [2] | AR transactivation (AR) |
| --- | --- | --- | --- | --- | --- | --- | --- | --- | --- | --- | --- | --- | --- | --- |
| C[C@](O)(COc1ccc(C#N)cc1)C(=O)Nc1ccc(C#N)c(Cl)c1 [Formula VIII, (S)—N-(3-chloro-4-cyanophenyl)-3-(4-cyanophenoxy)-2-hydroxy-2-methylpropanamide] | inhibited the proliferation | altered the morphology into a more anchored phenotype | 17.1 | 10 | 100 | about 1,000 fold | 3 | 8 | greater than 10,000 fold | increased | without any associated toxicity or changes in body weight | increase of body weight | reduced | agonists of AR |
| C[C@](O)(COc1ccc(C#N)cc1)C(=O)Nc1ccc(C#N)c(C(F)(F)F)c1 [Formula IX, (S)—N-(4-Cyano-3-(trifluoromethyl)phenyl)-3-(4-cyanophenoxy)-2-hydroxy-2-methylpropanamide] | inhibited the proliferation | altered the morphology into a more anchored phenotype | 163 | – | – | – | – | – | – | – | – | increase of body weight | reduced | agonists of AR |
